Reference: patent US11780851B2, “LRRK2 inhibitors” (H. Lundbeck A/S, priority 2021, dated 2023)
Read-outs that look alike come from different tables or passages of the source.

Legend:
LRRK2 WT = biological target: T1, LRRK2 WT (Homo sapiens, UniProt Q5S007); assay: LRRK2 wild-type kinase activity assay (LanthaScreen TR-FRET); format: biochemical; conditions: 1 nM LRRK2 WT, 1.3 mM ATP, 3.5 h at 30° C.; n≥2 tests
T1 construct: comprises residue 970 to 2527 of the full length human wild-type LRRK2 kinase; purchased Invitrogen (Life Technologies Corporation)
Outline: (§1)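 TR-FRET measured phosphorylation of fluorescein-ERM LRRKtide by human LRRK2 residues 970–2527, wild-type or G2019S, detected with a terbium anti-phospho-LRRKtide antibody. The 520/495 nm ratio was normalized to uninhibited and inhibitor controls. IC50 came from a Hill fit, log-averaged over independent experiments.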

[1] = tested on: pooled donor, cryopreserved hepatocytes; assay: Hepatocyte intrinsic clearance assay; format: in vitro ADME, human; conditions: 0.1 μM, 2 h at 37° C., 1×10^6 hepatocytes/mL; * measured on 3 separate occasions, ** on a single occasion
Description: (§2) Test compounds (final concentration 0.1 μM, 0.05% organic) were incubated for 2 h at 37° C., with shaking, in supplemented Leibovitz L-15 media (pH7.4) containing commercially sourced, pooled donor, cryopreserved hepatocytes (final concentration 1×10^6 hepatocytes/m L). The CLint reactions (350 μL) were initiated by addition of test compound. Aliquots (25 μL) were taken at 1, 5, 10, 15, 30, 60, 90 and 120 minutes and then protein crashed with ice-cold acetonitrile containing internal standard (150 μL) then centrifuged (1960 g for 20 minutes at 4° C.). Supernatant was diluted (1:4) with deionized water then analyzed by liquid chromatography (LC)-tandem mass spectrometry (MS/MS). The intrinsic clearances (CLint) were calculated from the slope (k) of the linear regressions of percentages of compound remaining in incubation against incubation time, according to equations 2 and 3.

LRRK2 G2019S = biological target: T2, LRRK2 G2019S (Homo sapiens, UniProt Q5S007, G2019S); assay: LRRK2 G2019S kinase activity assay (LanthaScreen TR-FRET); format: biochemical; conditions: 250 pM LRRK2 G2019S, 1.3 mM ATP, 3 h at 30° C.; n≥2 tests
T2 construct: purchased Invitrogen (Life Technologies Corporation)
Outline: as §1

[2] = Rat B/P (brain disposition); format: in vivo, male Sprague-Dawley rats; conditions: male, Sprague-Dawley; for concentration at 1 h / Kp uu at 1 h / Kp at 1 h: time point 1.0 h; for concentration at 1 h / Kp at 1 h / concentration at 0.5 h / Kp at 0.5 h: mean ± stdev; for Kp uu at 1 h / Kp at 1 h / Kp uu at 0.5 h / Kp at 0.5 h: brain/plasma; for Kp uu at 1 h / Kp uu at 0.5 h: fubrain from brain homogenate; for Kp at 1 h / Kp at 0.5 h: n = 3; for concentration at 0.5 h / Kp uu at 0.5 h / Kp at 0.5 h: time point 0.5 h
Outline: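 Male Sprague-Dawley rats (n=3, standard body weight) were used to assess brain disposition. Plasma and brain homogenates underwent protein precipitation with acetonitrile containing internal standard, then LC-MS/MS measurement using an optimized method. Compound levels were quantified against matrix-matched calibration standards, and brain Kp was calculated as total brain concentration divided by total plasma concentration.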

[3] = Free fraction in plasma (equilibrium dialysis); format: in vitro ADME, male Sprague-Dawley rat; conditions: rat plasma, 1 μM, 5 h at 37° C.
Outline: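 Equilibrium dialysis (12-14 kDa membrane) of male Sprague-Dawley rat or female Gottingen minipig plasma, or rat brain homogenate diluted 1:4, against 100 mM sodium phosphate pH 7.4, compound at 1 μM nominal (≤0.5% DMSO), 5 h at 37 °C. LC/MS-MS quantification; percent free calculated, with dilution factor 4 for brain.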

GSH adduct screening = format: in vitro ADME, human; conditions: 1 μM, 3 h at 37° C., HLM 0.5 mg/mL, NADPH, with and without GSH
Description: Test compounds (final concentration 1 μM, 0.25% organic) were incubated for 3 h at 37° C. in commercially sourced, pooled donor, human liver microsomes (HLM, final concentration 0.5 mg/mL) with and without addition of glutathione (GSH; final concentration […]). The metabolic reaction was initiated by addition of microsomal solution to the mixture of cofactor NADPH (final concentration 1 mM), test compound and GSH. After 3 h of incubation in a water bath at 37° C., the reaction was stopped by addition of 0.2% formic acid in acetonitrile, followed by mixing and centrifugation (16000 g for 5 minutes). Supernatant was diluted (1:1) with HPLC water then analyzed by liquid chromatography (LC)-quadrupole time-of-flight mass spectrometry (QTOF-MS). Accurate mass MS and MS/MS spectra from samples with GSH and without GSH, respectively, were compared to identify detectable GSH and/or cysteine related adducts.

[4] = Hepatocyte intrinsic clearance assay; format: in vitro ADME, human; conditions: human, pooled donor, cryopreserved hepatocytes, pH 7.4, 0.1 μM, 2 h at 37° C., 1×10^6 hepatocytes/mL; * measured on 3 separate occasions, ** on a single occasion
Description: as §2

[5] = brain, oral gavage 10 mg/kg, n = 3, read-out: Total brain concentration
[6] = plasma, oral gavage 10 mg/kg, n = 3, read-out: Total plasma concentration

T1 sequence (Q5S007 970-2527): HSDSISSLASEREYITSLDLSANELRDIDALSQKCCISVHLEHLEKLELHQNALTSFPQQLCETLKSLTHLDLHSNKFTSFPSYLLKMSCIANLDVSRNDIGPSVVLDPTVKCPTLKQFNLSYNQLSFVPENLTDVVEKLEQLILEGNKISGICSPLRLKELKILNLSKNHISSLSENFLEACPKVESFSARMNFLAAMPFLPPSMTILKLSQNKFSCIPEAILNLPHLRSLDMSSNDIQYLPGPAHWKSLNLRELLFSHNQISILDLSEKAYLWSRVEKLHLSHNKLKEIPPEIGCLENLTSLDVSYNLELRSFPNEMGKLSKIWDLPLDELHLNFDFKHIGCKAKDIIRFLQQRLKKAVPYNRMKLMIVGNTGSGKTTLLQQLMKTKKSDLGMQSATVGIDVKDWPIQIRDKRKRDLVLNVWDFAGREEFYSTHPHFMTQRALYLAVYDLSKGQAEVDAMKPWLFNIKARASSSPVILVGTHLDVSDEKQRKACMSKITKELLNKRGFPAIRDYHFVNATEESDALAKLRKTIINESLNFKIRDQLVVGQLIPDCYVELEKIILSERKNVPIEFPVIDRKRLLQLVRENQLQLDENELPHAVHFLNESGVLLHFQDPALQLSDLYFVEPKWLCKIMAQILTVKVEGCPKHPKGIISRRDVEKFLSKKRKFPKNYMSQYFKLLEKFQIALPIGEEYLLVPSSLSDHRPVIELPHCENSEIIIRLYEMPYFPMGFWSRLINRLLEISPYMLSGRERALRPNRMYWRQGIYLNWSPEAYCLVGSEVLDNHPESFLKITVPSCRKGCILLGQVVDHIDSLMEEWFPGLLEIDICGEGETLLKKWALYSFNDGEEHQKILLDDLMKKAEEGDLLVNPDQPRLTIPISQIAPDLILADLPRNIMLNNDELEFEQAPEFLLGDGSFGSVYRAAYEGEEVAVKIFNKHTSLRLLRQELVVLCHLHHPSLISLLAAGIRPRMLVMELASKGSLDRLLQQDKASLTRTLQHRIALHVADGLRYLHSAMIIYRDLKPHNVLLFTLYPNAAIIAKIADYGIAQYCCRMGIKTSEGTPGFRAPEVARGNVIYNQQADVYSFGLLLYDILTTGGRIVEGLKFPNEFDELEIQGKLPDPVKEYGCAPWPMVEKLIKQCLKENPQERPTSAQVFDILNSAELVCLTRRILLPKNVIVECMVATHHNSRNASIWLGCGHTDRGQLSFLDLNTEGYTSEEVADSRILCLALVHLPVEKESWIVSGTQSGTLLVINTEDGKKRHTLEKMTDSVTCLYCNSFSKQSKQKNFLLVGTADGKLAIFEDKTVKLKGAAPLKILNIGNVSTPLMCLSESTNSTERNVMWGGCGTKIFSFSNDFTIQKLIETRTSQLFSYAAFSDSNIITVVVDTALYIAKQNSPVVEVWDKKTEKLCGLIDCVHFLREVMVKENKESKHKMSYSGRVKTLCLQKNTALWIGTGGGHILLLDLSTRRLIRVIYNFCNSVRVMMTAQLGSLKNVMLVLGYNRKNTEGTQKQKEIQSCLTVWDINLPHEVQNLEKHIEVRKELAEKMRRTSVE
T2 sequence (Q5S007 970-2527 G2019S): as the sequence (Q5S007 970-2527) above, with G1050S counted along it

Cc1c2c(nn1[C@H]1CCCOC1)OCCCn1nc(Cl)c3cnc(nc31)N2 (single isomer, unassigned) [Example 3, (R) or (S)-8-Chloro-3-methyl-2-(tetrahydro-2H-pyran-3-yl)-2,4,12,13-tetrahydro-11H-5,7-(azenometheno)dipyrazolo[3,4-b:5′,1′-g][1]oxa[4,6,8]triazacycloundecine]
IC50 (LRRK2 WT): 9.2 nM | CLint [1]: 5.5 mL/min/kg | IC50 (LRRK2 G2019S): 2.2 nM

Cc1c2c(nn1[C@H]1CCCOC1)OCCCn1nc(Cl)c3cnc(nc31)N2 (single isomer, unassigned) [Example 4, (R) or (S)-8-Chloro-3-methyl-2-(tetrahydro-2H-pyran-3-yl)-2,4,12,13-tetrahydro-11H-5,7-(azenometheno)dipyrazolo[3,4-b:5′,1′-g][1]oxa[4,6,8]triazacycloundecine]
IC50 (LRRK2 WT): 12 nM | concentration at 1 h [2, 5]: 1360 ± 186 ng/g | Kp uu at 1 h ([2]; oral gavage 10 mg/kg): 0.42 ± 0.07 | Kp at 1 h ([2]; oral gavage 10 mg/kg): 1.82 ± 0.33 | concentration at 1 h [2, 6]: 758 ± 145 ng/mL | CLint [1]: 14.5 mL/min/kg | fuplasma (% free) [3]: 25.3 % free | IC50 (LRRK2 G2019S): 2.8 nM

Cc1c2c(nn1[C@@H]1CCO[C@H](C)C1)OCCCn1nc(Cl)c3cnc(nc31)N2 (single isomer, unassigned) [Example 19]
IC50 (LRRK2 WT): 13 nM | Adduct detected in GSH supplemented HLMs (GSH adduct screening): +GSH | concentration at 0.5 h [2, 5]: 1430 ± 134 ng/g | Kp uu at 0.5 h ([2]; oral gavage 10 mg/kg): 0.4 ± 0.04 | Kp at 0.5 h ([2]; oral gavage 10 mg/kg): 1.28 ± 0.13 | concentration at 0.5 h [2, 6]: 1140 ± 229 ng/mL | CLint [1]: <4 mL/min/kg | fuplasma (% free) [3]: 24.0 % free | IC50 (LRRK2 G2019S): 3.9 nM

Cc1c2c(nn1[C@H]1CCCOCC1)OCCCn1nc(Cl)c3cnc(nc31)N2 (single isomer, unassigned) [Example 30, (+)-(R) or (S)-8-Chloro-3-methyl-2-(oxepan-4-yl)-2,4,12,13-tetrahydro-11H-5,7-(azenometheno)dipyrazolo[3,4-b:5′,1′-g][1]oxa[4,6,8]triazacycloundecine]
IC50 (LRRK2 WT): 12 nM | concentration at 1 h ([2]; brain, oral gavage 5 mg/kg, n = 3, read-out: Total brain concentration): 427 ± 96 ng/g | Kp uu at 1 h ([2]; oral gavage 5 mg/kg): 0.73 ± 0.06 | Kp at 1 h ([2]; oral gavage 5 mg/kg): 2.05 ± 0.18 | concentration at 1 h ([2]; plasma, oral gavage 5 mg/kg, n = 3, read-out: Total plasma concentration): 210 ± 50 ng/mL | CLint [1]: 10.5 mL/min/kg | fuplasma (% free) [3]: 26.5 % free | IC50 (LRRK2 G2019S): 4 nM

Cc1c2c(nn1[C@@H]1CCOC[C@H]1F)OCCCn1nc(Cl)c3cnc(nc31)N2 (single isomer, unassigned) [Example 32, (+)-8-Chloro-2-((3S,4R) or (3R,4S)-3-fluorotetrahydro-2H-pyran-4-yl)-3-methyl-2,4,12,13-tetrahydro-11H-5,7-(azenometheno)dipyrazolo[3,4-b:5′,1′-g][1]oxa[4,6,8]triazacycloundecine]
IC50 (LRRK2 WT): 15 nM | CLint [1]: <4 mL/min/kg | IC50 (LRRK2 G2019S): 6.1 nM

[2H]C([2H])([2H])c1c2c(nn1[C@H]1CCO[C@@H](C)C1)OCCCn1nc(Cl)c3cnc(nc31)N2 (single isomer, unassigned) [Example 52, (−)-8-Chloro-3-(methyl-d3)-2-((2R,4R) or (2S,4S)-2-methyltetrahydro-2H-pyranyl)-2,4,12,13-tetrahydro-11H-5,7-(azenometheno)dipyrazolo[3,4-b:5′,1′-g][1]oxa[4,6,8]triazacycloundecine]
IC50 (LRRK2 WT): 19 nM | Adduct detected in GSH supplemented HLMs (GSH adduct screening): +GSH | CLint [1]: <4 mL/min/kg | IC50 (LRRK2 G2019S): 10 nM

[2H]C([2H])([2H])c1c2c(nn1[C@H]1CCCOCC1)OCCCn1nc(Cl)c3cnc(nc31)N2 (single isomer, unassigned) [Example 59, (−)-(R) or (S)-8-Chloro-3-(methyl-d3)-2-(oxepan-4-yl)-2,4,12,13-tetrahydro-11H-5,7-(azenometheno)dipyrazolo[3,4-b:5′,1′-g][1]oxa[4,6,8]triazacycloundecine]
IC50 (LRRK2 WT): 17 nM | CLint [1]: 6.67 mL/min/kg | IC50 (LRRK2 G2019S): 6.2 nM

[2H]C([2H])([2H])c1c2c(nn1[C@@H]1CCCOC1)OCCCn1nc(Cl)c3cnc(nc31)N2 (single isomer, unassigned) [Example 60, (R) or (S)-8-Chloro-3-(methyl-d3)-2-(tetrahydro-2H-pyran-3-yl)-2,4,12,13-tetrahydro-11H-5,7-(azenometheno)dipyrazolo[3,4-b:5′,1′-g][1]oxa[4,6,8]triazacycloundecine]
IC50 (LRRK2 WT): 25 nM | CLint [1]: 8.5 mL/min/kg | IC50 (LRRK2 G2019S): 9 nM

[2H]C([2H])([2H])c1c2c(nn1[C@@H]1CCCOC1)OCCCn1nc(Cl)c3cnc(nc31)N2 (single isomer, unassigned) [Example 61, (R) or (S)-8-Chloro-3-(methyl-d3)-2-(tetrahydro-2H-pyran-3-yl)-2,4,12,13-tetrahydro-11H-5,7-(azenometheno)dipyrazolo[3,4-b:5′,1′-g][1]oxa[4,6,8]triazacycloundecine]
IC50 (LRRK2 WT): 34 nM | CLint [1]: <4 mL/min/kg | IC50 (LRRK2 G2019S): 10 nM

CO[C@H]1CC[C@H](n2nc3c(c2C)Nc2ncc4c(Cl)nn(c4n2)CCCO3)CC1 [Example 37, 8-Chloro-2-((1r,4r)-4-methoxycyclohexyl)-3-methyl-2,4,12,13-tetrahydro-11H-5,7-(azenometheno)dipyrazolo[3,4-b:5′,1′-g][1]oxa[4,6,8]triazacycloundecine]
IC50 (LRRK2 WT): 8.5 nM | Adduct detected in GSH supplemented HLMs (GSH adduct screening): +GSH | concentration at 0.5 h [2, 5]: 683 ± 139 ng/g | Kp at 0.5 h ([2]; oral gavage 10 mg/kg): 1.87 ± 0.76 | Kp uu at 0.5 h ([2]; po, 10 mg/kg, oral gavage 10 mg/kg): 0.47 ± 0.19 | concentration at 0.5 h [2, 6]: 391 ± 96 ng/mL | CLint scaled at 0.1 μM [4]: < 4 mL/min/kg | fuplasma (% free) [3]: 18.2 % free | IC50 (LRRK2 G2019S): 3.7 nM
